This note sets out measurements from ChEMBL document CHEMBL3875185, “Structure-anticonvulsant activity studies in the group of (E)-N-cinnamoyl aminoalkanols derivatives monosubstituted in phenyl ring with 4-Cl, 4-CH3 or 2-CH3” (Bioorg Med Chem, 2017).

Activity calls are given as the source filed them. The rule behind the calls is not given here. A value given as a limit tells only on which side of the number the result lay.

Data set [1] has as its system Mus musculus. Put plainly: Anticonvulsant activity in 6-Hz induced seizure mouse model assessed as restoration of normal activity within 10 secs from stimulation at 100 mg/kg, ip at 32 mA measured at 1 hr post dose. The data set is classed as functional, organism-based.
In the next data set the test system is AtT20. As to the kind of experiment: Displacement of [125I]Tyr11-somatostatin-14 from Sst receptor in mouse AtT-20 cells at 100 uM measured after 60 mins by scintillation counting method relative to control. The format is cell-based. (In general: In a radioligand displacement assay an active substance lowers the binding of a labelled ligand.)
The target of data set [2] is T1, 5-hydroxytryptamine receptor 1A (Homo sapiens) (UniProt P08908).
T1 sequence (whole entry): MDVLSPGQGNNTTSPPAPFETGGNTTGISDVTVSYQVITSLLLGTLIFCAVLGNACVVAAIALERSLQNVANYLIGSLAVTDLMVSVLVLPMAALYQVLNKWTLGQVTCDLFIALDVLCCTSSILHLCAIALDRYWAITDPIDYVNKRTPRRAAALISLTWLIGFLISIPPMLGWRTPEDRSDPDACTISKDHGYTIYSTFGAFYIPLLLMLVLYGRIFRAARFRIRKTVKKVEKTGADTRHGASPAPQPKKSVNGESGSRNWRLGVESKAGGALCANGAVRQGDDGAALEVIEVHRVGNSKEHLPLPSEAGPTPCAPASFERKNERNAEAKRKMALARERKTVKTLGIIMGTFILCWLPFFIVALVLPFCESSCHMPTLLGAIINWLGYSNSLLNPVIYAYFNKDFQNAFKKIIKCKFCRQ
Put plainly: Displacement of [3H]8-OH-DPAT from human recombinant 5HT1A receptor expressed in HEK293 cells at 100 uM measured after 60 mins by scintillation counting method relative to control. The data set is classed as cell-based.

Data set [3] concerns the target Neurotensin receptor type 1 (Homo sapiens) (UniProt P30989). Put plainly: Displacement of [125I]Tyr3-neurotensin from human recombinant NTS1 receptor expressed in CHO cells at 100 uM measured after 60 mins by scintillation counting method relative to control. The data set is classed as cell-based.
Data set [4] can be described thus: Protection index, ratio of TD50 for neurotoxicity in ip dosed Sprague-Dawley rat model to ED50 for ip dosed maximal electroshock induced seizure Sprague-Dawley rat model. The data set is classed as toxicity, organism-based. Conditions: in vivo, read-out: Ratio TD50/ED50. A general note: Protection in the maximal electroshock model is a classic sign of anticonvulsant action.

Data set [5] addresses B2 bradykinin receptor (Homo sapiens) (UniProt P30411). As to the kind of experiment: Displacement of [3H]bradykinin from human recombinant bradykinin B2 receptor expressed in CHO cells at 100 uM measured after 60 mins by scintillation counting method relative to control. The format is cell-based.
A short description of data set [6]: Protection index, ratio of TD50 for neurotoxicity in po dosed mouse to ED50 for po dosed maximal electroshock induced seizure mouse model. The format is toxicity, organism-based. Conditions: in vivo, read-out: Ratio TD50/ED50.
Data set [7] relates to Mus musculus. Put plainly: Anticonvulsant activity in po dosed pentylenetetrazole induced seizure mouse model assessed as no observable episode of clonic convulsion of at least 5 secs by measuring time to peak effect. The format is functional.
A short description of data set [8]: Protection index, ratio of TD50 for neurotoxicity in po dosed mouse to ED50 for po dosed 6-Hz induced seizure mouse model at 44 mA. The format is toxicity, organism-based. Particulars: in vivo, read-out: Ratio TD50/ED50.
Data set [9] deals with Calcitonin gene-related peptide type 1 receptor (Homo sapiens) (UniProt Q16602). As to the kind of experiment: Displacement of [125I]hCGRPa from human recombinant CGRP receptor expressed in CHO cells at 100 uM measured after 90 mins by scintillation counting method relative to control. The data set is classed as cell-based.
Chain of Calcitonin gene-related peptide type 1 receptor (Homo sapiens) (Q16602 whole entry): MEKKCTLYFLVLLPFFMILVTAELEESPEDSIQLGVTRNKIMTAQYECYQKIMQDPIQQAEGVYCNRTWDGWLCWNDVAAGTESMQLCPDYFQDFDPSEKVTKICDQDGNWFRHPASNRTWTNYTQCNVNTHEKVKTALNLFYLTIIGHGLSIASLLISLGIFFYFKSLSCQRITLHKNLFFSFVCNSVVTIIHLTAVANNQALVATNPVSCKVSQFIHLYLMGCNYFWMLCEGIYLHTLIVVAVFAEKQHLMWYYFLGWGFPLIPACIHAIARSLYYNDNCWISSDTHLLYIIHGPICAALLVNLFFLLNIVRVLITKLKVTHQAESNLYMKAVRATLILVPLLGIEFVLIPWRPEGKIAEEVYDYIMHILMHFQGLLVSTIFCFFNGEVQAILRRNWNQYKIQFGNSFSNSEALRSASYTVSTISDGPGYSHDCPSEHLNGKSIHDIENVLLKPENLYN
Data set [10] concerns the target Type-1 angiotensin II receptor (Homo sapiens) (UniProt P30556). Put plainly: Displacement of [125I][Sar1,Ile8]-AT2 from human recombinant AT1 receptor expressed in HEK293 cells at 100 uM measured after 120 mins by scintillation counting method relative to control. The format is cell-based.
Data set [11] has as its system Mus musculus. As to the kind of experiment: Neurotoxicity in mouse assessed as induction of motor impairment at 300 mg/kg, ip measured at 0.5 hrs post dose by rotarod method. The format is toxicity, organism-based. Conditions: in vivo.
The test system of data set [12] is Mus musculus. As to the kind of experiment: Neurotoxicity in mouse assessed as induction of motor impairment at 300 mg/kg, ip measured at 4 hrs post dose by rotarod method. The format is toxicity, organism-based. Particulars: in vivo. A general note: The rotarod test checks motor coordination on a turning rod.
Data set [13] is filed under the species Rattus norvegicus. As to the kind of experiment: Displacement of [125I][Tyr4]bombesin from rat cerebral cortex BB receptor at 100 uM measured after 60 mins by scintillation counting method relative to control.
A short description of data set [14]: Neurotoxicity in po dosed mouse. The data set is classed as toxicity, organism-based. Particulars: in vivo.
The species named for data set [15] is Rattus norvegicus. As to the kind of experiment: Displacement of [3H]D888 from rat cerebral cortex calcium channel L type verapamil binding site at 100 uM measured after 120 mins by scintillation counting method relative to control.
The test system of data set [16] is Mus musculus. As to the kind of experiment: Anticonvulsant activity in po dosed 6-Hz induced seizure mouse model assessed as restoration of normal activity within 10 secs from stimulation by measuring time to peak effect at 44 mA. The data set is classed as functional.
In data set [17] the test system is Mus musculus. As to the kind of experiment: Anticonvulsant activity in po dosed pentylenetetrazole induced seizure mouse model assessed as no observable episode of clonic convulsion of at least 5 secs. The format is functional.
Data set [18] is filed under the species Rattus norvegicus. Put plainly: Displacement of [125I]alpha-dendrotoxin from rat cerebral cortex Kv channel at 100 uM measured after 60 mins by scintillation counting method relative to control.
For data set [19], the system named is Mus musculus. As to the kind of experiment: Anticonvulsant activity in po dosed maximal electroshock induced seizure mouse model assessed as suppression in hindlimb tonic extension. The data set is classed as functional.
Data set [20] is described as follows: Protection index, ratio of TD50 for neurotoxicity in po dosed mouse to ED50 for po dosed pentylenetetrazole induced seizure mouse model. The data set is classed as toxicity, organism-based. Particulars: in vivo, read-out: Ratio TD50/ED50.
Data set [21] has as its target Histamine H2 receptor (Homo sapiens) (UniProt P25021). As to the kind of experiment: Displacement of [125I]APT from human recombinant H2 receptor expressed in CHO cells at 100 uM measured after 120 mins by scintillation counting method relative to control. The format is cell-based.
The test system of data set [22] is Rattus norvegicus. Put plainly: Neurotoxicity in Sprague-Dawley rat assessed as behavioral change at 50 mg/kg, ip measured at 0.5 hrs post dose. The data set is classed as toxicity, organism-based. Particulars: in vivo.
For data set [23], the system named is Mus musculus. As to the kind of experiment: Anticonvulsant activity in maximal electroshock induced seizure mouse model assessed as suppression in hindlimb tonic extension at 300 mg/kg, ip measured at 4 hrs post dose. The format is functional, organism-based.
Data set [24] deals with Neuropeptide Y receptor type 2 (Homo sapiens) (UniProt P49146). As to the kind of experiment: Displacement of [125I]peptide YY from Y2 in human KAN-TS cells receptor at 100 uM measured after 60 mins by scintillation counting method relative to control. The data set is classed as cell-based.
Chain of Neuropeptide Y receptor type 2 (Homo sapiens) (P49146 whole entry): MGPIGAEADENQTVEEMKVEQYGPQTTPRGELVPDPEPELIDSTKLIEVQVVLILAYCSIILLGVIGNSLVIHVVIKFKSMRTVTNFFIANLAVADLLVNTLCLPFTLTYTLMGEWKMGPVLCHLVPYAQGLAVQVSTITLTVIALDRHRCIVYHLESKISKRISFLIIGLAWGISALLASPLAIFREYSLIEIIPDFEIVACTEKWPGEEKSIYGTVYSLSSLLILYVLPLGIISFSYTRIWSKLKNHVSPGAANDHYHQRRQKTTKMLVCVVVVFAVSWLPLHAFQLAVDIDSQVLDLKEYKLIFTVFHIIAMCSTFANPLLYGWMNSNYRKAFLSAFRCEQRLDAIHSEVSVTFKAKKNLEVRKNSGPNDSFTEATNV
In data set [25] the test system is Rattus norvegicus. As to the kind of experiment: Neurotoxicity in Sprague-Dawley rat assessed as behavioral change at 50 mg/kg, ip measured at 2 hrs post dose. The data set is classed as toxicity, organism-based. Conditions: in vivo.
Data set [26] concerns Mus musculus. As to the kind of experiment: Anticonvulsant activity in 6-Hz induced seizure mouse model assessed as restoration of normal activity within 10 secs from stimulation at 100 mg/kg, ip at 44 mA measured at 0.5 hrs post dose. The data set is classed as functional, organism-based.
In data set [27] the test system is Rattus norvegicus. Put plainly: Neurotoxicity in Sprague-Dawley rat assessed as behavioral change at 50 mg/kg, ip measured at […] post dose. The data set is classed as toxicity, organism-based. Particulars: in vivo.
Data set [28] relates to Rattus norvegicus. As to the kind of experiment: Neurotoxicity in Sprague-Dawley rat assessed as behavioral change at 50 mg/kg, ip measured at 4 hrs post dose. Particulars: in vivo. The data set is classed as toxicity, organism-based.
Data set [29] addresses Vasopressin V1a receptor (Homo sapiens) (UniProt P37288). Put plainly: Displacement of [3H]AVP from human recombinant V1a receptor expressed in CHO cells at 100 uM measured after 60 mins by scintillation counting method relative to control. The data set is classed as cell-based.
Data set [30] has as its system Rattus norvegicus. Put plainly: Neurotoxicity in Sprague-Dawley rat assessed as behavioral change at 50 mg/kg, ip measured at 1 hr post dose. The format is toxicity, organism-based. Particulars: in vivo.
In data set [31] the target is Glucocorticoid receptor (Homo sapiens) (UniProt P04150). Put plainly: Displacement of [3H]dexamethasone from GR receptor in human IM9 cells at 100 uM relative to control. The data set is classed as cell-based. Particulars: IM-9.
Chain of Glucocorticoid receptor (Homo sapiens) (P04150 whole entry): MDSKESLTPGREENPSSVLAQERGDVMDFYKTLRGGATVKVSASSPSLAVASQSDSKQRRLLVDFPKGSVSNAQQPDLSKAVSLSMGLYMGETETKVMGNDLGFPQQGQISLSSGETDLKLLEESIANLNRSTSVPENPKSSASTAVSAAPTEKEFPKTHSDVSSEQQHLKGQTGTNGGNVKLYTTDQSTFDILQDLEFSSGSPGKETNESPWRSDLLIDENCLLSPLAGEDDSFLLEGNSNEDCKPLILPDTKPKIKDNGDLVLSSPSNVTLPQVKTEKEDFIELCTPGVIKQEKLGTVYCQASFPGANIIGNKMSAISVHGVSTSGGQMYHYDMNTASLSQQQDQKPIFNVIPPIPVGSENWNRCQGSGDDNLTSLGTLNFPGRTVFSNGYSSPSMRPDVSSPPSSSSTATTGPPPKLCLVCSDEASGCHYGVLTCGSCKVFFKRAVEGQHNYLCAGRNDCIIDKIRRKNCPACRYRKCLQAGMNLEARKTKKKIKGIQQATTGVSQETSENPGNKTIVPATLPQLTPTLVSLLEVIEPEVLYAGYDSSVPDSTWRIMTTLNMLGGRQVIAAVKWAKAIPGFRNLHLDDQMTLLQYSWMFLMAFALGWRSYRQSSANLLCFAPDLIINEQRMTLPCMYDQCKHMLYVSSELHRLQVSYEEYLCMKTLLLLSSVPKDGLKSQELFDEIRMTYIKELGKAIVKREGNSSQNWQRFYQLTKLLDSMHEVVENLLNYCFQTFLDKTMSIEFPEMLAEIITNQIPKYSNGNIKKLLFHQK

Chain of Type-1 angiotensin II receptor (Homo sapiens) (P30556 whole entry): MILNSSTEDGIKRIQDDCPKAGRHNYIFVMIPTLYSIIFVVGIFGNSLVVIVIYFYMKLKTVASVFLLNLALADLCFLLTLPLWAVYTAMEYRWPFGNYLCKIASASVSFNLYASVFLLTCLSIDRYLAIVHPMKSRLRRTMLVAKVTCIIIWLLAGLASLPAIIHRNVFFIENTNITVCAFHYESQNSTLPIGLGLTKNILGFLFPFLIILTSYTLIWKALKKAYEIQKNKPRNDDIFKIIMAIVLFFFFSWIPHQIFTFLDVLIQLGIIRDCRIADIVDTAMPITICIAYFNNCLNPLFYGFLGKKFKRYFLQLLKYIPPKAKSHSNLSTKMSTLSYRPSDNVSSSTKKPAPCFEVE
Chain of B2 bradykinin receptor (Homo sapiens) (P30411 whole entry): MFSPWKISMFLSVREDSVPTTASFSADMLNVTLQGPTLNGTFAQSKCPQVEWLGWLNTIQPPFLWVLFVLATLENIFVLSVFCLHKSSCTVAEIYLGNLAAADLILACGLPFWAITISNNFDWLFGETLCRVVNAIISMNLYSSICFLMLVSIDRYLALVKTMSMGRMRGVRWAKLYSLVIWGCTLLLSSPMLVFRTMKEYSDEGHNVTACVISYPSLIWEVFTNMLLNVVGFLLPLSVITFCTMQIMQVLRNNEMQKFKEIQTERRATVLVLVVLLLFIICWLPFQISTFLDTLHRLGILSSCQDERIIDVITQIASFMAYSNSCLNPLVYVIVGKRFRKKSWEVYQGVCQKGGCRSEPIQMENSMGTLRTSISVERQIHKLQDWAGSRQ
Chain of Histamine H2 receptor (Homo sapiens) (P25021 whole entry): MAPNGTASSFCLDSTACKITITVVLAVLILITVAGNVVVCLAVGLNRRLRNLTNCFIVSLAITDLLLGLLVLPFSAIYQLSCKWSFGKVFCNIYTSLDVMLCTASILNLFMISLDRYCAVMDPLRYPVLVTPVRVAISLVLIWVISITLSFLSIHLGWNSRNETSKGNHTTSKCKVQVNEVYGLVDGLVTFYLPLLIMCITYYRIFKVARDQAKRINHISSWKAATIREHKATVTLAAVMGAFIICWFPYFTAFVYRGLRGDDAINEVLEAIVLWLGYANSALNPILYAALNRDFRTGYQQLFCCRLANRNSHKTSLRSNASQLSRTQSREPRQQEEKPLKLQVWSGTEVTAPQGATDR
Chain of Neurotensin receptor type 1 (Homo sapiens) (P30989 whole entry): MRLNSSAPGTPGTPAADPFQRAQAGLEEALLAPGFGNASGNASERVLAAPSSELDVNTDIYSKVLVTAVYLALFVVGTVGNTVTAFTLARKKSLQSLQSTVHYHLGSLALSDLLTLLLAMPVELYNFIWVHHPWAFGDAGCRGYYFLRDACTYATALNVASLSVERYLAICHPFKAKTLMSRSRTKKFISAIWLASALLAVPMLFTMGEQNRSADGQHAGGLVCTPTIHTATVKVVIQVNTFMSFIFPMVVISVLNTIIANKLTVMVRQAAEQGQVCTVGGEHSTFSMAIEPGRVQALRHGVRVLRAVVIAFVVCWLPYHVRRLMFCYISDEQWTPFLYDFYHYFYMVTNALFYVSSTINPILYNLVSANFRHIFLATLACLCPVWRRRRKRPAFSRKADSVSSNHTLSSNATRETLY
Chain of Vasopressin V1a receptor (Homo sapiens) (P37288 whole entry, looked up): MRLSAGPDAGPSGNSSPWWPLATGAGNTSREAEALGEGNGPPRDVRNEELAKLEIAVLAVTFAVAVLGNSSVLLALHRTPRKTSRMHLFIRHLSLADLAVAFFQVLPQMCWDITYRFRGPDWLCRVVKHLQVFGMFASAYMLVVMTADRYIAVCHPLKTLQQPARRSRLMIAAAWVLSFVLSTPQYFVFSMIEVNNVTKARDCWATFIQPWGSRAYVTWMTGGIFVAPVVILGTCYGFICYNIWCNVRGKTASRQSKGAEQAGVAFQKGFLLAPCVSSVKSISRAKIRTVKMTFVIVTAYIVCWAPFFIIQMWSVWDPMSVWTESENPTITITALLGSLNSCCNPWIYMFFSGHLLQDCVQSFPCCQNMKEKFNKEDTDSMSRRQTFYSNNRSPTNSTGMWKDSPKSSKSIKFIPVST

Usually inhibition stands for the relative decrease from the control value, in per cent. One may read the TD50 as the 50% point of the dose-response relation for the toxic effect studied. What is called ED50 is the dose that gives a 50% effect, or the effect in half of the subjects. Regarding `Cc1ccccc1/C=C/C(=O)N[C@@H](C)CO`, in the data set on Mus musculus [1], the outcome was Active. For the same compound, the inhibition with AtT20 is -4.6%; in data set [2], 51.2%; in [3], -4.6%; in data set [5], -8.3%; in data set [9], -7.6%; in [10], -0.8%. Also, the inhibition was -3.4% in the data set filed under Rattus norvegicus [13], -0.4% in the data set listed under Rattus norvegicus [15] and -8.7% in the data set listed under Rattus norvegicus [18]. In addition, the selectivity ratio stood at 6.3 in [4], 6.51 in data set [6], 3.81 in [8] and 2.15 in data set [20]. Moreover, the Time in the data set on Mus musculus [7] and in the data set on Mus musculus [16] was 0.5 h throughout. In addition, the Activity entry is reported as “Toxic” in the data set on Mus musculus [11] and “Non-Toxic” in the data set with Mus musculus [12]. In [14], this compound had a TD50 of 282 mg/kg. Also, the figures for the median effective dose (ED50) in the data set with Mus musculus [17] and with Mus musculus [19] were 132 mg/kg and 43.3 mg/kg, respectively.

Consider `CCC(CO)NC(=O)/C=C/c1ccc(Cl)cc1` (stereo unspecified), for which the inhibition was -10% in the data set on AtT20; 28.2% in [2]; -5.2% in data set [21]; 4.3% in data set [24]; 10.6% in [29]; -9.9% in [31]. Also, the Activity entry in the data set on Rattus norvegicus [22], with Rattus norvegicus [25], in the data set on Rattus norvegicus [27], in the data set on Rattus norvegicus [28] and in the data set with Rattus norvegicus [30] was “Non-Toxic” each time. In addition, the selectivity ratio in [4] amounted to 3.74. Also, the result with Mus musculus [23] and in the data set with Mus musculus [26] was Active.

Regarding `CC(O)CNC(=O)/C=C/c1ccc(Cl)cc1` (stereo unspecified), the result with Mus musculus [1], with Mus musculus [23] and with Mus musculus [26] was Active. The inhibition was 76.6% in data set [2]; -6.4% in data set [21]; -2.6% in data set [3]; -1% in [5]; -6.9% in data set [9]; -9.6% in data set [10]. Moreover, the inhibition in the data set listed under Rattus norvegicus [13] was -0.1%; in data set [24], 14.1%; in the data set listed under Rattus norvegicus [15], -2.5%; in [29], 9%; in the data set listed under Rattus norvegicus [18] it was -9.6%; in data set [31], -7%. Besides, the Activity result with Rattus norvegicus [22] is listed as “Non-Toxic”; in the data set with Mus musculus [11] it was “Toxic”; in the data set on Mus musculus [12], “Toxic”; with Rattus norvegicus [25] it was “Non-Toxic”; in the data set on Rattus norvegicus [27] it was “Non-Toxic”; with Rattus norvegicus [28], “Non-Toxic”. Besides, the Activity result in the data set on Rattus norvegicus [30] is given as “Non-Toxic”. The selectivity ratio is 1.66 in data set [4], more than 5.41 in data set [6], more than 4.17 in [8] and more than 3.79 in data set [20]. Moreover, the Time in the data set with Mus musculus [7] and in the data set with Mus musculus [16] was 1 h in each case. Besides, the TD50 in data set [14] is more than 500 mg/kg. Moreover, the figures for the median effective dose (ED50) in the data set on Mus musculus [17] and in the data set with Mus musculus [19] were 132 mg/kg and 92.5 mg/kg, respectively.
